Here are results for 38 compounds from ChEMBL document CHEMBL1130222, “Induction of the estrogen specific mitogenic response of MCF-7 cells by selected analogues of estradiol-17 beta: a 3D QSAR study” (J Med Chem, 1997).

One test relates to MCF7. The experiment in a line: cells. Conditions: Homo sapiens.
Test [1] concerns the target Estrogen receptor (Homo sapiens) (UniProt Q92731+P03372).
Description: Estrogen receptor (ER) binding affinity

The structures appear in SMILES notation.

Description for MCF7: Growth response in cultures of MCF-7 (human breast cancer cell line) cells

`C[C@]12CC[C@H]3C(=CCc4cc(O)ccc43)[C@@H]1CC[C@@H]2O` had an EC50 in the test with MCF7 of 0.00154 nM.

In the test on MCF7, `C[C@]12CC[C@H]3[C@H](CC=C4C[C@@H](O)CC[C@@]43C)[C@@H]1CC[C@@H]2O` yielded an EC50 of 1.41 nM. The same compound came in with a Ka in test [1] of 2.7e+07 M⁻¹.

`C[C@]12CCc3c(ccc4cc(O)ccc34)[C@@H]1CC[C@@H]2O` displayed an EC50 in the test with MCF7 of 0.0125 nM. The compound further had a Ka in test [1] of 1.52e+09 M⁻¹.

`C[C@]12CC[C@@H]3c4ccc(O)cc4C=C[C@@H]3[C@@H]1CC[C@@H]2O` came in with an EC50 with MCF7 of 0.00419 nM.

Consider `C[C@]12CC[C@@H]3c4ccc(O)cc4[C@@H](O)CC3[C@@H]1CC[C@@H]2O` (single isomer, unassigned), for which the 50% effective concentration (EC50) in the test on MCF7 amounted to 0.186 nM. Also, the Ka in test [1] was 8.88e+07 M⁻¹.

Regarding `C[C@]12C[C@H](O)[C@@H]3c4ccc(O)cc4CCC3[C@@H]1CC[C@@H]2O` (single isomer, unassigned), the EC50 in the test on MCF7 is 0.0163 nM. The Ka in test [1] is 6.22e+07 M⁻¹.

Compound `C[C@]12CC[C@@H]3c4ccc([N+](=O)[O-])cc4CCC3[C@@H]1CC[C@@H]2O` (single isomer, unassigned) showed an EC50 with MCF7 of 2.16 nM. The Ka in test [1] came out at 7.77e+06 M⁻¹.

In the case of `C[C@]12CC[C@@H]3c4cc([N+](=O)[O-])ccc4CCC3[C@@H]1CC[C@@H]2O` (single isomer, unassigned), in the test with MCF7, the EC50 is 29.3 nM. Also, the Ka in test [1] was < 1.85e+06 M⁻¹.

For `C[C@]12CC[C@@H]3c4c(O)cccc4CCC3[C@@H]1CC[C@@H]2O` (single isomer, unassigned), a half-maximal response with MCF7 (EC50) required 1.59 nM. This compound registered a Ka in test [1] of 1.8e+07 M⁻¹.

As to `C[C@]12CC[C@@H]3c4cccc([N+](=O)[O-])c4CCC3[C@@H]1CC[C@@H]2O` (single isomer, unassigned), the EC50 in the test with MCF7 came out at 34.2 nM. The Ka in test [1] is < 1.85e+06 M⁻¹.

As to `C[C@]12CC[C@@H]3c4ccc(O)c(N)c4CCC3[C@@H]1CC[C@@H]2O` (single isomer, unassigned), the concentration for a half-maximal effect (EC50) in the test on MCF7 is 0.346 nM. Further, in test [1], the Ka was determined as 2.11e+08 M⁻¹.

The compound `C[C@]12CC[C@@H]3c4ccc(O)cc4CCC3[C@@H]1C[C@@H](O)C2` (single isomer, unassigned) came in with an EC50 in the test with MCF7 of 0.237 nM. This compound also gave a Ka in test [1] of 2.97e+09 M⁻¹.

Consider `C[C@]12CC[C@@H]3c4ccc(O)cc4CC(=O)C3[C@@H]1CC[C@@H]2O` (single isomer, unassigned), for which the 50% effective concentration (EC50) in the test on MCF7 is 0.016 nM. In test [1], this compound returned a Ka of 3.39e+09 M⁻¹.

In the test with MCF7, `C[C@]12CC[C@@H]3c4cccc(I)c4CCC3[C@@H]1CC[C@@H]2O` (single isomer, unassigned) showed an EC50 of 1.67 nM. The compound further had a Ka in test [1] of 4.44e+06 M⁻¹.

Turning to `C[C@]12CC[C@@H]3c4ccc(O)cc4C[C@@H](O)C3[C@@H]1CC[C@@H]2O` (single isomer, unassigned), the EC50 with MCF7 came out at 0.153 nM. This compound also registered a Ka in test [1] of 6.3e+07 M⁻¹.

With `C[C@]12CC[C@@H]3c4cc(N)ccc4CCC3[C@@H]1CC[C@@H]2O` (single isomer, unassigned), a half-maximal effect with MCF7 (EC50) was put at 0.127 nM. Besides, the Ka in test [1] amounted to 1.45e+08 M⁻¹.

As to `C[C@]12CC[C@@H]3c4cccc(O)c4CCC3[C@@H]1CC[C@@H]2O` (single isomer, unassigned), in the test with MCF7, the response was half-maximal at 4.76 nM (EC50). The compound further came in with a Ka in test [1] of 2.5e+08 M⁻¹.

Take `C[C@]12CC[C@@H]3c4cc([N+](=O)[O-])c(O)cc4CCC3[C@@H]1CC[C@@H]2O` (single isomer, unassigned): the EC50 in the test on MCF7 stood at 33.5 nM. The compound also showed a Ka in test [1] of 3.7e+06 M⁻¹.

Compound `C[C@]12CC[C@@H]3c4c(N)cccc4CCC3[C@@H]1CC[C@@H]2O` (single isomer, unassigned) had an EC50 with MCF7 of 28.4 nM. Moreover, the Ka in test [1] is < 1.85e+06 M⁻¹.

Turning to `C[C@]12CC[C@@H]3c4ccc(O)cc4C[C@H](O)C3[C@@H]1CC[C@@H]2O` (single isomer, unassigned), the half-maximal effective concentration (EC50) in the test with MCF7 worked out at 0.0122 nM. In test [1], this compound showed a Ka of 3.66e+09 M⁻¹.

In the case of `C[C@]12C[C@@H](O)[C@@H]3c4ccc(O)cc4CCC3[C@@H]1CC[C@@H]2O` (single isomer, unassigned), in the test with MCF7, the response was half-maximal at 0.0365 nM (EC50). The Ka in test [1] is 1.15e+07 M⁻¹.

On to `C[C@]12CC[C@@H]3c4ccc(N)cc4CCC3[C@@H]1CC[C@@H]2O` (single isomer, unassigned), for which the EC50 with MCF7 is 1.5 nM. Besides, the Ka in test [1] is 2.78e+11 M⁻¹.

Consider `C[C@@]12CCC[C@H]1C1CCc3ccccc3[C@H]1CC2` (single isomer, unassigned), for which, in the test on MCF7, the half-maximal effective concentration (EC50) worked out at 201 nM. Further, the Ka in test [1] was < 1.8e+06 M⁻¹.

`C[C@]12CC[C@@H]3c4ccc(O)c([N+](=O)[O-])c4CCC3[C@@H]1CC[C@@H]2O` (single isomer, unassigned): in the test on MCF7, the concentration giving a half-maximal response (EC50) came out at 0.9 nM. The compound further displayed a Ka in test [1] of 1.44e+08 M⁻¹.

`C[C@]12CC[C@@H]3c4cc(O)ccc4CCC3[C@@H]1CC[C@@H]2O` (single isomer, unassigned) registered an EC50 in the test on MCF7 of 0.033 nM. In test [1], this compound displayed a Ka of 2.6e+09 M⁻¹.

For the compound `C[C@]12CC[C@@H]3c4ccc(I)cc4CCC3[C@@H]1CC[C@@H]2O` (single isomer, unassigned), the EC50 with MCF7 worked out at 0.174 nM. Moreover, the Ka in test [1] is 1.96e+07 M⁻¹.

Turning to `C[C@]12CC[C@@H]3c4cc(N)c(O)cc4CCC3[C@@H]1CC[C@@H]2O` (single isomer, unassigned), in the test with MCF7, a half-maximal effect (EC50) was put at 0.558 nM. For the same compound, in test [1], the Ka came to 1.33e+08 M⁻¹.

As to `C[C@]12CC(=O)[C@@H]3c4ccc(O)cc4CCC3[C@@H]1CC[C@@H]2O` (single isomer, unassigned), in the test on MCF7, the EC50 is 8.97 nM. In test [1], this compound returned a Ka of 3.33e+06 M⁻¹.

Take `C[C@]12CC[C@@H]3c4c(cccc4[N+](=O)[O-])CCC3[C@@H]1CC[C@@H]2O` (single isomer, unassigned): the EC50 with MCF7 amounted to 60.4 nM. Moreover, the Ka in test [1] is < 1.85e+06 M⁻¹.

For the compound `C[C@]12CC[C@@H]3c4cc(I)ccc4CCC3[C@@H]1CC[C@@H]2O` (single isomer, unassigned), the 50% effective concentration (EC50) with MCF7 stood at 1.7 nM. This compound also showed a Ka in test [1] of 3.33e+06 M⁻¹.

On to `C[C@]12CC[C@@H]3c4cccc(N)c4CCC3[C@@H]1CC[C@@H]2O` (single isomer, unassigned), for which the response in the test on MCF7 was half-maximal at 2 nM (EC50). In test [1], this compound returned a Ka of 2.15e+07 M⁻¹.

`C[C@]12CC[C@@H]3c4ccccc4CCC3[C@@H]1CC[C@@H]2O` (single isomer, unassigned) had an EC50 in the test with MCF7 of 0.316 nM. Moreover, the Ka in test [1] was found to be 4.1e+08 M⁻¹.

`C[C@@]12CCC[C@H]1C1CCc3cc(O)ccc3[C@H]1CC2` (single isomer, unassigned) registered a concentration for a half-maximal effect (EC50) with MCF7 of 0.118 nM. The compound further yielded a Ka in test [1] of 2.93e+09 M⁻¹.

As to `C[C@]12CC[C@@H]3c4ccc(O)cc4C(=O)CC3[C@@H]1CC[C@@H]2O` (single isomer, unassigned), in the test on MCF7, the 50% effective concentration (EC50) was found to be 0.00338 nM. In test [1], the Ka stood at 1.09e+09 M⁻¹.

In turn, `C[C@]12CC[C@@H]3c4ccc(O)cc4[C@H](O)CC3[C@@H]1CC[C@@H]2O` (single isomer, unassigned) yielded a 50% effective concentration (EC50) with MCF7 of 0.0571 nM. In test [1], this compound returned a Ka of 7e+07 M⁻¹.

On to `C[C@]12CC[C@@H](O)C[C@@H]1CCC1[C@@H]2CC[C@]2(C)[C@@H](O)CC[C@@H]12` (single isomer, unassigned) [ANDROSTANDIOL], for which the 50% effective concentration (EC50) with MCF7 is > 10000 nM. Besides, the Ka in test [1] is < 1.85e+06 M⁻¹.

The compound `C[C@]12CC[C@H](O)C[C@@H]1CCC1[C@@H]2CC[C@]2(C)[C@@H](O)CC[C@@H]12` (single isomer, unassigned) [ANDROSTANEDIOL] returned an EC50 in the test with MCF7 of 4.66 nM. Besides, in test [1], the Ka came out at 1.8e+07 M⁻¹.

In the case of `C[C@]12CC[C@@H]3c4ccc(O)cc4CCC3[C@@H]1C[C@@H](O)[C@@H]2O` (single isomer, unassigned) [ESTRIOL], the EC50 with MCF7 was determined as 0.0483 nM.
